Results reported in patent US11484599B2, “Polymer conjugate vaccines” (The University of Chicago, priority 2015, dated 2022).

Key:
[1] = tested on: OVA-specific immune response; experiment: OVA vaccination day 0 and 28, T cell response after restimulation; format: in vivo, mice
Description: (§1) Mice were immunized on day 0 and 28 with one of […] formulations: 1.) 10 μg of OVA+30 μg, 2.) p(Man-TLR) (30 μg equivalent of TLR7-MA), 3.) 10 μg of OVA and unconjugated p(Man-TLR) (30 μg equivalent of TLR7-MA), 4.) 10 μg of OVA-p(Man) conjugate with 30 μg of TLR7-MA, or 5.) 10 μg of OVA-p(Man-TLR).
Given the ability of p(Man-TLR) to activate BMDCS and target tethered proteins to various DC-subsets, mice were treated with OVA-p(Man-TLR) and the OVA-specific immune response was analyzed. Animals were treated on day 0 and 28 with an i.d. injection of OVA-p(Man-TLR), OVA-p(Man)+TLR7-MA, OVA and unconjugated p(Man-TLR), p(Man-TLR), or OVA+CpG. Mice receiving formulations that contained either free or polymer-conjugated OVA were treated with 10 μg of OVA on days 0 and 28. Mice treated with formulations containing either TLR7-MA or p(man-TLR) either free or OVA conjugated received 30 μg of TLR7-agonist as TLR7-MA or the total weight of TLR7-MA monomer units in the polymer on days 0 and 28. Mice treated with OVA and CPG received 30 μg of CPG on days 0 and 28. After 35 days, the lymphocytes from the spleen and lymph node were harvested and restimulated with either whole OVA or the CD8 immunodominant peptide […].

[2] = tested on: OVA-specific immune response; experiment: OVA vaccination day 0 and 28, humoral immune response; format: in vivo, mice
Description: as §1
In order to initiate protection against extracellular microorganisms and to prevent the spread of intracellular infections, effective vaccines preferably induce a strong humoral immune response. The ability of OVA-p(Man-TLR) to mount an effective humoral immune response was analyzed by determining the percentage of T follicular helper (Tfh) cells in the LN and spleen, the number of antigen specific plasma cells in the spleen, and the OVA specific antibody titers of vaccinated mice. […] Given these impressive results, we analyzed the blood of vaccinated animals for total OVA-specific IgG titers as well as OVA-specific IgG2C titers.

DCs (CD11c+ cells) = experiment: Example 10: in vivo DC activation in draining lymph nodes after footpad injection; set-up: species or system mice; settings: footpads, 50 μg fluorescently-labeled OVA, 24 h
Source text: Activation is highest in DCs that collect the formulation and thus are also antigen-positive. Thus, both antigen and adjuvant are co-delivered to the same DCs, which are then the cells that are activated. This is one of the benefits of selecting TLR7 as an adjuvant target, based on its intracellular, endosomal localization.
In order to be an effective adjuvant/delivery system for vaccine development, p(Man-TLR) conjugates preferably target antigens to APCs and activate these cells in vivo. Mice were injected in the footpads with 50 μg of fluorescently-labeled OVA conjugated to p(Man-TLR) or free non-conjugated fluorescently-labeled OVA. After 24 h, the draining lymph nodes of these animals were collected and processed into single cells suspensions. The lymphocytes were then analyzed via flow cytometry for the presence of the co-stimulatory molecule markers CD86 and CD80 on APCs. […] Furthermore, CD11c+ cells that had taken up OVA-p(Man-TLR) conjugates (i.e., Protein+CD11c+ cells) had higher levels of expression of CD80 and CD86 as compared to the expression of CD80 and CD86 on the total CD11c+ population of mice treated with OVA-p(Man-TLR).

[3] = tested on: OVA-specific immune response; experiment: Example 11: in vivo immune response after footpad vaccination with OVA formulations; set-up: species or system mice
Description: FIG. 14: Mice were vaccinated at day 0 and day 28 with 10 μg OVA equivalent of the various forms and combinations shown, and were sacrificed on day 35 for analysis. The intensity of the CD8+ T cell response was judged by measuring the frequency of […] (SEQ ID NO. 1) pentamer-binding cells.
FIG. 15: Mice were vaccinated at day 0 and day 28 with 10 μg OVA equivalent of the various forms and combinations shown, and were sacrificed on day 35 for analysis. The cytokine responsiveness of cells in the LN was determined after antigen re-exposure. […] Separation of the formulation into its component parts was not effective: of particular note, free antigen mixed with but not conjugated to the p(Man-TLR) nanoadjuvant (OVA+pManTLR, yellow) was not nearly as effective, showing the need for the conjugate.
FIG. 16: The humoral response to vaccination was characterized by measuring the frequency of antibody-producing plasma cells and the frequency of Tfh cells in the spleen, and the antibody titers in the blood.
Mice were vaccinated in the four footpads on day 0 and 28 with either OVA-p(Man-TLR), OVA and mTLR, OVA conjugated to p(Man) (OVA-p(Man)) and mTLR, OVA+p(Man-TLR) or just p(Man-TLR). Animals treated with formulations containing OVA received 10 μg of OVA in its free or conjugated form, and animals treated with formulations containing TLR received 30 μg of TLR in its free or […] form. The animals were sacrificed on day 35 and the spleens and lymph nodes were analyzed for the resulting immune response.

B16F10/OVA tumors = experiment: Example 13: cancer vaccination in mice bearing B16F10/OVA tumors; format: in vivo, C57BL/6 mice
Description: In order to determine if OVA-p(Man-TLR) conjugates could inhibit the growth of OVA-expressing tumors, mice bearing B16F10/OVA tumors (that is, B16F10 melanoma cells expressing the xeno-antigen OVA as a model tumor antigen) were treated with OVA-p(Man-TLR). 10^5 B16F10/OVA cells were inoculated subcutaneously (s.c.) between the scapulae in C57BL/6 mice on day 0 and left to engraft and grow for 4 days. On day 4, 7, and 14, mice were administered saline or vaccinated with OVA-p(Man-TLR) or OVA and free p(Man-TLR). Animals treated with OVA received 10 μg OVA and 40 μg of TLR.

“OVA-p(Man-TLR): model antigen ovalbumin (OVA) conjugated to p(Man-TLR) via self-immolative linker” was tested, and the “IFNγ+CD4+ T cells after restimulation vs other treatments” value ([1]; i.d. day 0 and 28, 10 μg OVA, 30 μg TLR7-agonist, day 35) was “significantly more IFNγ+CD4+ T cells”, the “IFNγ+CD8 T cells in the lymph nodes vs OVA-p(Man)+TLR7-MA and OVA+CpG” value ([1]; i.d. day 0 and 28, day 35) was “increased the number of IFNγ+CD8 T cells in the lymph nodes” and the “TNFα positive CD8+ and CD4+ T cells in restimulated splenocytes vs other TLR7-MA or p(Man-TLR) formulations” value ([1]; i.d. day 0 and 28, day 35) was “significantly increased the number of CD8+ and CD4+ T cells that are positive for TNFα”. For the same substance, the “total OVA-specific IgG and IgG2C titers vs other vaccine formulations” value ([2]; blood of vaccinated animals) was “significant increase in both total IgG and IgG2C titers”, the “increase in number of IgG-producing plasma cells vs OVA+p(Man-TLR) or other formulations” value ([2]; day 35, spleen, FIG. 11C) was “more than 2 fold” and the “percentage of Tfh in lymph node and spleen vs other treatments” value ([2]; day 35, vaccination on days 0 and 28) was “significantly increases the percentage of Tfh in the lymph node and spleen”. The “CD80 and CD86 expression on CD11c+ cells of draining lymph nodes vs free OVA” value (DCs (CD11c+ cells)) was “express significantly more CD80 and CD86”, the “OVA-specific total IgG vs non-conjugate vaccine (OVA+pMan-TLR)” value ([3]; FIG. 16) was “elevated by more than an order of magnitude” and the “CD8+ and CD4+ T cells positive for both TNFα and IFNγ upon restimulation vs other treatments” value ([3]; day 35) was “significantly more CD8+ and CD4+ T cells that are positive for both the proinflammatory cytokines TNFα and IFNγ”. For the same substance, the “OVA-specific antibodies in the blood vs other treatments” value ([3]; day 35) was “significantly more OVA-specific antibodies in the blood”, the “splenic IgG producing plasma cells and T follicular helper cells vs other treatments” value ([3]; day 35) was “significantly more splenic IgG producing plasma cells and T follicular helper cells” and the “OVA pentamer+ cells in lymph nodes and spleens vs other therapies” value ([3]; footpads day 0 and 28, 10 μg OVA, 30 μg TLR, day 35) was “significantly more OVA pentamer+ cells in the lymph nodes and spleens”. The “growth of B16/OVA tumors” value (B16F10/OVA tumors; treated day 4, 7 and 14, 10 μg OVA and 40 μg of TLR) was “capable of inhibiting the growth of B16/OVA tumors”, the “pentamer+CD8+ cells in the draining lymph nodes vs OVA+p(Man-TLR)” value (B16F10/OVA tumors; tumor-bearing mice) was “induced significantly more pentamer+CD8+ cells in the draining lymph nodes” and the “percentage of OVA pentamer+ cells in the draining lymph nodes” value (B16F10/OVA tumors; tumor-bearing mice, FIG. 20) was “increased the percentage of OVA pentamer+ cells in the draining lymph nodes”.
